What was measured:
Type in all cases: cell-based, human
[1] = system: Vδ1 T cells; test: Adenosine measurement by MALDI TOF spectrometry in supernatants of amplified Vδ1 T cells
Method: Amplified Vδ1 T cells (2.106 cells/mL) were washed in cold PBS and resuspended in PBS supplemented with 50 mM AMP (Sigma) at 4° C. for 30 min. After centrifugation, adenosine levels in supernatants were analyzed by MALDI-TOF mass spectrometry, as previously described by Bastid et al..

[2] = system: Vδ1 T cells; test: ELISA of IL-10, IL-8 and TGF-β in supernatants of expanded Vδ1 T cells
From the text: Phytohemagglutinin (PHA) was purchased from Thermofisher Scientific. The anti-human CD3 (UCHT1), and the anti-human TCR γδ and TCR Vδ1 antibodies were purchased from Beckman Coulter (Brea, Calif., USA). Anti-human CD3, CD73, CD39 and their isotypically matched control mouse antibodies were from BD Biosciences (San Jose, Calif., USA). The anti-human TCR γδ antibody used for IHC was from Santa Cruz Biotechnology (USA). Recombinant human IL-2 (rhIL-2) was from Novartis Pharma (Rueil-Malmaison, France), and recombinant IL-21 (rhIL-21) was from Miltenyi Biotec (Paris, France). ELISA kits for detecting human IL-10 and IL-8 were from BD Biosciences (San Jose, Calif., USA). ELISA kit for the detection of human TGFβ was from RD system.
Expanded Vδ1 T cells (2.106 cells/mL) were incubated in fresh medium without cytokines in wells coated or not with the anti-CD3 antibody (UCHT1) for 6 h, and then supernatants were collected. IL-8 and IL-10 protein levels were assessed using the relevant BD Biosciences Opteia Kits. The mean values of duplicate samples from the same experiment are shown for each data point with their standard error of the mean (SEM).

[3] = system: Vδ1 T cells; test: Flow cytometry of CD39, CD73 and PD-L1 expression in expanded Vδ1 T cells
From the text: Peripheral Blood Mononuclear Cells (PBMCs) were obtained by density centrifugation on Ficoll-Paque (Eurobio, Les Ulis, France) of blood samples from healthy donors and breast cancer patients. Healthy donor samples were provided by the Etablissement Français du Sang (Convention EFS-OCPM no 21PLER2018-0069) and the blood of patients was provided by the ICM (BCB-EC-1-FR-ICM-ENR-269-004-CRB). […] Vδ1 T cells were isolated from PBMCs by a positive immunoselection using the anti-human Vδ1 antibody (Beckman Coulter) and anti-IgG1 magnetic beads (Miltenyi Biotec). Briefly, 300.106 cells were incubated with 10 μg of anti-human Vδ1 antibody in 5 ml of PBS supplemented with 2% SVF and EDTA (2 mM) for 1 hour at 4° C., then washed and incubated with 200 μl of anti-IgG1 magnetic beads for 1 hour at 4° C., then washed and collected on column according to the manufacturer's instructions (Miltenyi Biotec). Reproducible high purity of Vδ1 T cells (>90%) was obtained with this protocol. Purified Vδ1 T cells (2.106 cells/ml) were stimulated with 2 μg/mL of PHA in the presence of syngeneic macrophages isolated using their adherence properties. Briefly, PBMC (2.106/ml) were incubated in RPMI 10% FCS for 1 hour at 37° C. in 96 well-plates to allow to monocytes to adhere and differentiate in macrophages. Non-adherent cells were removed by 2 washes with RPMI medium. Purified Vδ1 T cells were added to macrophages, activated by PHA and expanded in the complete medium containing RPMI 1640/Glutamax medium supplemented with 5% human AB serum and 5% fetal calf serum (FCS) in the presence of rhIL-2 (control) or rhIL-2+rhIL-21 (experimental condition) at 37° C. in humidified atmosphere with 5% CO2. Every 2 days, fresh medium is added and after 1 week Vδ1 T cells were separated from adherent macrophages and amplified in the complete medium with cytokines for 2 more weeks before phenotyping and analysis.
Cells were first incubated at 4° C. for 30 min with Fc-block solution to minimize non-specific binding of antibodies to Fc receptors, then incubated with a dye cell viability and the panel of antibodies in the staining buffer (PBS-2% FCS) at 4° C. for 30 min, cells were then washed and fixed in 1% paraformaldehyde. Data were acquired with a Cytoflex cytometer (Beckman-Coulter) and analyzed with the FlowJo software.
Peripheral Blood Mononuclear Cells (PBMCs) were obtained by density centrifugation on Ficoll-Paque (Eurobio, Les Ulis, France) of blood samples from healthy donors and breast cancer patients. Healthy donor samples were provided by the Etablissement Français du Sang and the blood of patients was provided by the Institut regional du Cancer de Montpellier (ICM). […] Vδ1 T cells were isolated from PBMCs by a positive immunoselection using the anti-human Vδ1 antibody (Beckman Coulter) and anti-IgG1 magnetic beads (Miltenyi Biotec). Briefly, 300.106 cells were incubated with 10 μg of anti-human Vδ1 antibody in 5 ml of PBS supplemented with 2% SVF and EDTA (2 mM) for 1 hour at 4° C., then washed and incubated with 200 μl of anti-IgG1 magnetic beads for 1 hour at 4° C., then washed and collected on column according to the manufacturer's instructions (Miltenyi Biotec). Reproducible high purity of Vδ1 T cells (>90%) was obtained with this protocol. Purified Vδ1 T cells (2.106 cells/ml) were stimulated with 2 μg/mL of PHA in the presence of syngeneic macrophages isolated using their adherence properties. […]

Row | Compound | adenosine production by control and IL-21-amplified Vδ1 T cells ([1]; in the presence of the CD73 inhibitor) | IL-10 production after TCR/CD3 activation ([2]; IL-21-amplified CD73+ Vδ1 T cells, not in the CD73− cells) | IL-10 in supernatants, absence of activation ([2]; IL-21-amplified Vδ1 T cells, CD73+ or CD73−, not detected in control cells) | IL-8 production ([2]; activated IL-21-amplified CD73+ Vδ1 T cells only) | TGF-β secretion ([2]; any of the tested conditions) | adenosine generated in the presence of AMP ([1]; IL-21-amplified Vδ1 T cells, control cells (only rhIL-2) ~0.4 μM) | percentage of CD39-positive cells ([3]; Vδ1 T cells from healthy donors expanded with rhIL-2+rhIL-21 vs rhIL-2 only (control)) | fraction of Vδ1 T cells expressing PD-L1 ([3]; cells exposed to rhIL-21, about 50% in the control condition) | fraction of CD39/CD73-positive Vδ1 T cells ([3]; expanded with rhIL-2+rhIL-21, vs 18% in control cells) | fraction of CD73-positive Vδ1 T cells ([3]; expanded with rhIL-2+rhIL-21, vs 20% in the control condition (rhIL-2 only)) | percentage of PD-L1+ in CD73-positive Vδ1 T cells ([3]; exposure to rhIL-21 vs control, around 60%)
1 | Nc1ncnc2c1ncn2[C@@H]1O[C@H](COP(=O)([O-])CP(=O)(O)O)[C@@H](O)[C@H]1O.[Na+] [APCP, adenosine 5′-(α,β-methylene)-diphosphate sodium salt, reference compound] | strongly impaired | – | – | – | – | – | – | – | – | – | –
2 | rhIL-21: recombinant IL-21 (rhIL-21) from Miltenyi Biotec, cytokine added with rhIL-2 to expand Vδ1 T cells | – | strongly increased | basal level | highly present | did not detect | ~1.4 µM | did not modify | 65% | 40% | 50% | did not modify
